The numbers were not newly measured in US8759098B2, “Method for cloning pluripotent stem cells” (Boston Biomedical Research Institute, Inc., priority 2009, dated 2014), which cites them from elsewhere.

One series concerns human adult tissue. The note with it: used singly and in combination; Lin et al. 2009; cited from earlier work.
In another series the test system is somatic cells. To be noted: low oxygen conditions; Page et al. 2009; cited from earlier work.

On to `O=C(NOC[C@H](O)CO)c1ccc(F)c(F)c1Nc1ccc(I)cc1F` [PD0325901], for which the “efficiency of creating stem cells from human adult tissue” value in the series with human adult tissue is reported as “dramatically improve the efficiency”.

Take `NC(=O)c1ccc(-c2nc(-c3ccccn3)c(-c3ccc4c(c3)OCO4)[nH]2)cc1` [SB43142]: the “efficiency of creating stem cells from human adult tissue” value in the series on human adult tissue is on record as “dramatically improve the efficiency”.

With FGF2: fibroblast growth factor 2, the “expression of pluripotency inducing genes” value with somatic cells is given as “increased”.
